“Also recorded” adds a separate entry of the source.
Legend:
EJ cells = assay: Clonogenic assay of EJ cells; format: cell-based, human; conditions: for colony growth: EJ cells, 5 μM, grown for two weeks
Experimental: Aliquots of one hundred EJ cells were plated out in petridish (60 mm size) and allowed to establish themselves. […] After exposure, the cells were grown for two weeks without changing the medium, and the number of cell colonies were counted.

[1] = tested on: human cancer cells including breast cancer cells, bladder cancer cells, colon cancer cells, and lung cancer cells; assay: Induction of cell death/apoptosis in a panel of human cancer cells; format: cell-based
Text: We evaluated the ability of myrsinoic acid A (NP2008) to suppress cell growth and induce apoptosis in a panel of human cancer cells.

[2] = tested on: human normal (non-cancerous) breast epithelial cells; assay: Toxicity in human primary normal (non-cancerous) cells; format: cell-based; conditions: 5 and 10 microM (Iressa 5 microM), 24-96 hours, Alamar Blue and cell death assays
Experimental: The cultures were subsequently stained with crystal-violet blue to evaluate the number of live cells. […] The number of dead cells was determined by Alamar Blue staining as well as Cyto-Flow-cell death assays from Promega (Madison, Wis.).

DNA polymerases = conditions: cited from earlier work
mammary tumor = assay: Spontaneous tumor model (MMTV-PyVT transgenic mice); format: in vivo; conditions: 5 mg/kg daily i.p. for 28 days, vs DMSO
Text: Mice with a spontaneous tumor model (MMTV-PvVT (FVB/N-Tg) transgenic mice; NCI repository) develop multifocal mammary tumor (from hyperplasia to metastatic) with a high incidence of metastasis. This mouse model has been widely used for the correlation studies of human cancer (Guy et al., Moll. Cell. Biol. 12: 954-961, 1992). In addition, this mouse model has been used to evaluate the effectiveness of potential drug therapies. Generally, due to aggressiveness of tumor growth and spread in this mouse-model, only a combination of chemo-drugs is effective in tumor growth inhibition in this mouse model.
MMTV-PyVT mice were maintained until mammary tumor size reached to 6 mm, and then treated with myrsinoic acid A (NP2008) (5 mg/kg) or vehicle (DMSO) daily by i.p. for 28 days.

EJ cancer cells = assay: Cytotoxicity assay (sulforhodamine B) in EJ cancer cells; format: cell-based, human; conditions: high and low confluent density, FIG. 10 legend
Experimental: DMSO treatment was used as a control. Cells were stained with 0.4% sulforhodamine B three days after treatment. The results are shown in FIG. 10 A (cells started with higher confluent density) and FIG. 10 B (treatment experiments performed with lower confluent density). FIG. 10 C (low confluent) and FIG. 10 D show the result of a time curve experiment wherein aliquots of cells were stained at 24, 48, 72 and 96 hours.

[3] = tested on: phospho-EGFR, phospho-Her3/ErbB3 and phospho-AKT; assay: EGFR signaling in Iressa resistant SKBR3 cells by Western blot; format: cell-based, human; conditions: longer exposure (up to 96 hours)
Experimental: After treatment, total cell lysates were isolated and analyzed by Western blot analysis. The cells were evaluated for the presence of phospho-EGFR, phospho-Her3/ErbB3 and phospho-AKT.

HB-EGF = target: T1, HB-EGF (Homo sapiens, UniProt Q99075); assay: Surface Plasmon Resonance (Biacore) binding to immobilized HB-EGF; conditions: SPR, compound 0.78 uM-50 uM, 25° C.
T1 construct: lyophilized HB-EGF protein (R&D Systems) was dissolved in either water or PBS buffer; purchased R&D Systems
Experimental: A Biacore™ T100 (GE Healthcare, Uppsala, Sweden) was used to perform the Surface Plasmon Resonance (SPR) experiments. Sensor surface preparation and interaction analyses experiments were performed at 25° C. Prior to surface preparation, lyophilized HB-EGF protein (R&D Systems) was dissolved in either water or PBS buffer, at pH 7.4 and protein purity determined by Nu-Page 4-12% Bis-Tris gel in MOPS (3-(N-Morpholino)-propanesulfonic acid) buffer with a silver stain sensor preparation. HB-EGF was immobilized onto series S sensor chip CM4 via a standard N-ethyl-N′-(dimethyl-aminopropyl)carbodiimide/N-hydroxysuccinimide (EDC/NHS) amine coupling procedures. HB-EGF was diluted to 10 μg/mL in 10 mM sodium acetate pH5.5 for these procedures and resultant immobilization levels were 1000-1200 R.U.s. (R.U.: […]). Control surfaces were prepared similarly without protein derivatization and utilized as a reference surfaces for compound binding experiments. For compound interaction analyses, 0.01 M Hepes, pH7.4, 0.15 M NaCl, 0.05% Surfactant P20 and 5% DMSO was used. Compound samples were prepared by serial dilution in the range 0.78 uM-50 uM and flowed over control and derivatized surfaces for two minutes at a flow-rate of 80 μL/min. Zero concentration blank buffer cycles were included as negative control samples. […]

EJ cells or A549 cells = assay: Lung or bladder tumor xenograft in nude mice; format: in vivo; conditions: intraperitoneally 1 mg/kg every 48 hours for 42 days, vs control DMSO-administered mice
Experimental: Lung or bladder tumor xenograft-bearing mice were treated with myrsinoic acid A to evaluate its in vivo anti-tumor effect. A total of 2×10^6 EJ cells or A549 cells were implanted subcutaneously on opposite site flanks in each nude/nude mice (Charles River, Mass.). There were six mice in each group. When tumor masses grew to ˜2-5 mm in diameter, myrsinoic acid A (NP2008) was administered intraperitoneally (total 1 mg/kg) every 48 hours for 42 days.

[4] = mouse ear inflammatory test; cited from earlier work
[5] = tested on: human cancer cells including breast cancer cells, bladder cancer cells, colon cancer cells, and lung cancer cells; assay: Tumor cell growth inhibition / viable cells by crystal-violet staining; format: cell-based
Text: The ability to suppress the growth of cancer cells was again seen at micromolar potencies (2.5-10 microM) and was concentration dependent. […] Viable cells are shown with crystal-violet cell staining.

methioninase = conditions: cited from earlier work
[6] = concentration dependent, wildtype or mutated p53 cell lines

T1 sequence (Q99075 63-148 limits assumed): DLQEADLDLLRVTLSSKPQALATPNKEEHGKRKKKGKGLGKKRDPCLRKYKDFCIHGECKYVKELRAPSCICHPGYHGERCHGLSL

For COc1cc2ncnc(Nc3ccc(F)c(Cl)c3)c2cc1OCCCN1CCOCC1 [Iressa, reference compound], the colony growth (EJ cells) was “did not show any colony growth”.
With CC(C)=CCC/C(C)=C/Cc1cc(C(=O)O)cc(CC=C(C)C)c1O [myrsinoic acid A, 3-geranyl-4-hydroxy-5-(3′-methyl-2′butenyl)-benzoic acid] the cell death ([1]; EJ human bladder cancer cells and HCT116 human colon cancer cells (FIG. 5)) was “induces cell death”, the “potencies at which apoptosis is induced” value [1, 6] was 2.5 to 10 µM and the “cytotoxicity in normal cells” value [2] was “less cytotoxicity in normal cells than Iressa; also recorded: non-toxic”. The DNA polymerase inhibition (DNA polymerases) was “inhibitor of some DNA polymerases”, the tumor mass (mammary tumor) was “significant reduction in tumor mass” and the “suppression of cancer cell proliferation compared with Iressa” value (EJ cancer cells) was “more potent suppressor of cancer cell proliferation than Iressa”. The “phospho-EGFR, phospho-HER3 and phospho-AKT on longer exposure” value [3] was “long term suppression”, the “binding to HB-EGF” value (HB-EGF) was “binding” and the tumor growth (EJ cells or A549 cells) was “significant tumor-growth suppression”. The colony growth (EJ cells) was “did not show any colony growth”, the “suppression of growth of EJ cells compared with radiation or Iressa” value (EJ cells; clonogenic assay, FIG. 9 legend) was “more effective” and the anti-inflammatory activity [4] was “act as anti-inflammatory compounds”. The “number of viable cells” value ([5]; EJ, HCT116, MDA-MD486 and A549 cells, crystal-violet staining (FIG. 6)) was “decrease in the number viable cells” and the “potencies at which growth of cancer cells is suppressed” value [5, 6] was 2.5 to 10 µM.
In the case of CC(C)=CCCC(C)(O)C1Cc2cc(C(=O)O)cc(CC=C(C)C)c2O1 (centres unmarked) [myrsinoic acid B], the methioninase inhibition (methioninase) is listed as “methioninase inhibitor” and the anti-inflammatory activity [4] is listed as “act as anti-inflammatory compounds”.
In the case of CC(C)=CCC[C@]1(C)Oc2c(CC=C(C)C)cc(C(=O)O)cc2C[C@@H]1O [myrsinoic acid C], the anti-inflammatory activity [4] is given as “act as anti-inflammatory compounds”.
For CC(C)=CCC/C(C)=C/Cc1cc(C(=O)O)cc(C/C=C(\C)CCC=C(C)C)c1O [myrsinoic acid E], the anti-inflammatory activity [4] is given as “act as anti-inflammatory compounds”.
In the case of CC(C)=CC/C=C(\C)C1Cc2cc(C(=O)O)cc(CC=C(C)C)c2O1 (centres unmarked) [myrsinoic acid F], the anti-inflammatory activity [4] is given as “act as anti-inflammatory compounds; also recorded: most potent anti-inflammatory compound”.
